This is an account of results in US20230407296A1, “Method to Regulate ALOX12-AS1 IncRNA-Mediated Alteration of ALOX12 Protein and to Screen for Novel Drugs to Alter ALOX12 Protein Level” (priority 2021, published 2023).

What all share (type): cell-based, human
One assay concerns ALOX12 mRNA. In words: Multiplex RT-PCR of ALOX12 mRNA in TPA-treated THP-1 derived MLCs. The conditions noted are these: TPA treated (72 hours) MLCs vs vehicle treated THP-1 cells. The protocol: (§1) Phorbol ester (12-O-Tetradecanoylphorbol 13-acetate: TPA) is an activator of protein kinase C (PKC) that has been frequently used for inducing the differentiation of different cell types, including myeloid cells. Activation of human monocytic cells affects ALOX expression. Therefore, we induced differentiation of monocytic THP-1 cells to macrophage-like cells (MLCs) with 100 nM TPA [91, 92] and monitored the ALOX12 protein level as well as nucleo-cytoplasmic translocation of ALOX12-AS1-201. […] We concurrently monitored expression of the integrin subunit a M (ITGAM), also known as CD11b, which regulates myeloid cell polarization and is expressed in macrophages to facilitate adhesion, migration, chemotaxis, and accumulation during inflammation. […]
(§2) Total RNA from different cell lines was extracted with Trizol reagent (Catalog number: 15596026; ThermoFisher Scientific, Canada) as per the manufacturer's recommended protocol. […] Absolute quantification of ALOX12-AS1 lncRNA isoforms was performed in a Mastercycler®ep realplex real-time PCR system (Eppendorf, Hamburg, Germany) using SYBR green dye (Catalog number: S7563; ThermoFisher Scientific). […] Real-time PCR data quality control calculations were determined by the SAS program as described previously and the calculated PCR efficiency was between 95%-99%. […] Results were expressed as copy number of specific isoforms per 100 ng of total RNA.

The subject of a further assay is THP-1 cells. Kind of assay: TPA-induced differentiation of THP-1 cells to macrophage-like cells (ITGAM immunoblot, CD68 immunofluorescence). The conditions noted are these: 100 nM TPA. The procedure: (§3) Phorbol ester (12-O-Tetradecanoylphorbol 13-acetate: TPA) is an activator of protein kinase C (PKC) that has been frequently used for inducing the differentiation of different cell types, including myeloid cells. Activation of human monocytic cells affects ALOX expression. Therefore, we induced differentiation of monocytic THP-1 cells to macrophage-like cells (MLCs) with 100 nM TPA [91, 92] and monitored the ALOX12 protein level as well as nucleo-cytoplasmic translocation of ALOX12-AS1-201. […] We concurrently monitored expression of the integrin subunit a M (ITGAM), also known as CD11b, which regulates myeloid cell polarization and is expressed in macrophages to facilitate adhesion, migration, chemotaxis, and accumulation during inflammation. […] CD68 is a transmembrane glycoprotein that is mainly located in the endosomal/lysosomal compartment but can rapidly shuttle to the cell surface in myeloid cells. […] Based on these observations, we performed nuclear and cytoplasmic fractionation at 72 hours of TPA treatment.
(§4) Relative quantification of proteins was performed as described previously. […] The immunoblots were imaged using a ChemiDoc XRS+ system (Bio-Rad) and band intensities were quantified using ImageJ (version 1.48) Software. […]
(A western blot detects proteins with antibodies after separation by electrophoresis.)

Assay [1] concerns ALOX12 protein level in THP-1 cells. Kind of assay: ALOX12 protein level in TPA-treated THP-1 cells (immunoblot). The procedure: as §3, §4
Another assay relates to ALOX12 AS1-201. Kind of assay: Multiplex RT-PCR of ALOX12-AS1-201 in TPA-treated THP-1 derived MLCs. The conditions noted are these: TPA treated (72 hours) MLCs vs vehicle treated THP-1 cells. The procedure:
as §1, §2

In a further assay the test system is ALOX12-AS1-202. In words: Multiplex RT-PCR of ALOX12-AS1-202 in TPA-treated THP-1 derived MLCs. The note with it: TPA treated (72 hours) MLCs vs vehicle treated THP-1 cells. The procedure: as §1, §2
Assay [2] has as its system ALOX12 protein level in HEK293 cells. In words: ALOX12 protein level in HEK293 cells (immunoblot). The conditions noted are these: HEK293 cells, 10 μM TPA, 1 hour, vs vehicle.
Method: As an alternative approach, multiple isoform-specific oligonucleotides (ASOs) complementary to different regions of ALOX12-AS1-201/202 were designed (FIG. 7A-C).
Relative quantification of proteins was performed as described previously [35, 106]. The cell lysates were prepared in 1×RIPA lysis and extraction buffer (catalogue number: 89900, ThermoFisher Scientific) supplemented with 1× Halt protease and phosphatase inhibitor cocktail (catalogue number: 78441, ThermoFisher Scientific). The protein lysates were denatured in Laemmli buffer containing 2% SDS, 10% glycerol, 0.002% bromophenol blue, 0.75 M Tris-HCl pH 6.8, and 100 mM DTT. The immunoblots were imaged using a ChemiDoc XRS+ system (Bio-Rad) and band intensities were quantified using ImageJ (version 1.48) Software [107]. Due to the possibility of inconsistency in the relative expression of housekeeping genes, we normalized all proteins of interest based on the intensity of the Oriole-stained protein profile [92].
For a further assay, the system named is ALOX12-AS1-201 lncRNA. In words: Nucleo-cytoplasmic translocation of ALOX12-AS1-201 in THP-1 cells (FISH, fractionation, quantitative RT-PCR).

Bounds are passed on as bounds.

Method for ALOX12-AS1-201 lncRNA: Therefore, we induced differentiation of monocytic THP-1 cells to macrophage-like cells (MLCs) with 100 nM TPA [91, 92] and monitored the ALOX12 protein level as well as nucleo-cytoplasmic translocation of ALOX12-AS1-201. […] Based on these observations, we performed nuclear and cytoplasmic fractionation at 72 hours of TPA treatment.
Total RNA from different cell lines was extracted with Trizol reagent (Catalog number: 15596026; ThermoFisher Scientific, Canada) as per the manufacturer's recommended protocol. Total RNA (1-5 μg) was treated with RNase-free DNase I (Catalog number: M0303, New England Biolabs Inc., USA) at 37° C. for 15 min, subsequently heat-inactivated at 75° C. for 10 min and used for cDNA synthesis. […] Absolute quantification of ALOX12-AS1 lncRNA isoforms was performed in a Mastercycler®ep realplex real-time PCR system (Eppendorf, Hamburg, Germany) using SYBR green dye (Catalog number: S7563; ThermoFisher Scientific). […] Real-time PCR data quality control calculations were determined by the SAS program as described previously [101] and the calculated PCR efficiency was between 95%-99%. Quantitative RT-PCR was conducted for different cell-line derived RNAs, and the specificity of each amplified product was confirmed by melting curve analysis. Results were expressed as copy number of specific isoforms per 100 ng of total RNA.

As to `CCCCCCCCCCCCCC(=O)O[C@@H]1[C@@H](C)[C@@]2(O)[C@@H](C=C(CO)C[C@]3(O)C(=O)C(C)=C[C@@H]23)[C@@H]2C(C)(C)[C@]12OC(C)=O` [TPA, 12-O-Tetradecanoylphorbol 13-acetate], in the assay with ALOX12 mRNA, the “ALOX12 mRNA level” value was “relatively unaltered”. Also, in the assay on THP-1 cells (immunoblot), the ITGAM expression entry is “expressed at 72 hours”. For the same compound, the “CD68 expression and localization” value in the assay on THP-1 cells (immunofluorescence) was “gradually increasing expression and translocation of CD68 to endosomal structures”. Besides, the ALOX12 protein levels result was “dramatically reduced” in assay [1] (THP-1 cells, 100 nM TPA, treatment period 1-72 h, immunoblot) and “concomitant decrease” in assay [1] (TPA-differentiated MLCs, 100 nM, 72 hours, vs vehicle (DMSO) treated THP-1 cells). Moreover, the “ALOX12 AS1-201 level” value in the assay on ALOX12 AS1-201 is given as “relatively unaltered”. For the same compound, in the assay with ALOX12-AS1-202, the ALOX12-AS1-202 level result is listed as “dramatic reduction”. Besides, the ALOX12 protein level entry in assay [2] is listed as “significant reduction”. In addition, the “time to translocation of ALOX12-AS1-201 lncRNA to the cytosol” value with ALOX12-AS1-201 lncRNA (THP-1 cells, 100 nM TPA, FISH) is at most 1 h. The ALOX12-AS1-201 cytosolic abundance entry in the assay on ALOX12-AS1-201 lncRNA (TPA-differentiated MLCs, 72 hours, vs vehicle (DMSO) treated THP-1 cells, quantitative RT-PCR) is “significant increase”.
